Holding throughout (type): cell-based, human
Holding throughout (design): key to Personalization Category: Personalization categories range from High, Good, Moderate, Low, to None; Personalization categories range from High, Good, Moderate, Low, to None; Personalization categories range from High, Good, Moderate, Low, to None; Personalization categories range from High, Good, Moderate, Low, to None; Personalization categories range from High, Good, Moderate, Low, to None; key to Sensitivity Category: Sensitivity categories range from High, Good, Moderate, Low, to None; Sensitivity categories range from High, Good, Moderate, Low, to None; Sensitivity categories range from High, Good, Moderate, Low, to None; Sensitivity categories range from High, Good, Moderate, Low, to None; Sensitivity categories range from High, Good, Moderate, Low, to None; AUC: unit not given beside the values

For experiment [1], the system named is patient-derived tumor organoids (PDTOs), gastric cancer. Nature of the experiment: Endoxifen screen in PDTOs: gastric cancer. Conditions: each line one patient sample. How it is done: (§1) This example describes screening endoxifen in patient-derived tumor organoids. Endoxifen was tested as a single agent on tumor organoids derived from patients diagnosed with various cancer types using a personalized cancer treatment screening assay (PARIS© Test, SEngine Precision Medicine). The screen utilized patient-derived tumor organoids (PDTOs) along with high-throughput drug screening and machine learning-guided data analysis to quantify the efficacy of endoxifen against samples derived from individual patients diagnosed with various cancer types. PDTOs are self-organizing, three-dimensional organoid structures that recapitulate structural, functional, and genomic aspects of in vivo organs. The PDTOs were grown in culture from patient tumor biopsy samples.
(§2) Fresh patient biopsy samples received following surgery were cleaned and purified. Immune cells (e.g., lymphocytes, blood cells), cancer-associated fibroblasts, and other non-tumor cells were removed to establish pure PDTOs for endoxifen testing. The tumor organoids were grown and expanded by supplying organ- and patient-specific growth factors and nutrients. The PDTOs were treated with increasing concentrations of endoxifen ranging from about 30 nM to about 10 μM, and the drug response was measured using a luminescence readout. A lower luminescence was indicative of a stronger drug response.
(§3) The results were analyzed using a “SEngine Precision Medicine” (SPM) scoring system to assess the sensitivity and personalization of each tumor organoid to endoxifen. The SPM score correlates with clinical outcomes, such that a higher SPM score for a specific PDTO-drug combination predicts a more favorable clinical outcome following treatment of the corresponding patient with the tested drug.
(§4) This example describes testing endoxifen efficacy against 17 distinct cancer types in patient-derived tumor organoids (PDTOs). Screening of PDTOs was performed as described in EXAMPLE 1. For each PDTO sample, the drug response was measured using a luminescent readout over a range of endoxifen concentrations. The drug response was evaluated based on the area under the fitted dose response curve (AUC) and the SPM scoring system. AUC values were normalized for each PDTO. Briefly, data points at each drug concentration were first normalized to a negative control, then a dose response drug curve was approximated using a four-parameter logistic model fitted to the normalized data points. The area under the curve was calculated from the normalized curve. Normalization allowed for comparison of AUC values between patient samples. The SPM scores were based on machine learning models that incorporate values for how well the drug kill patient cells (sensitivity metric), the relative drug responses of a patient to all other patients in a sample database (personalization metric), and knowledge of clinical outcomes for patients that had been evaluated with the personalized cancer screening assay (PARIS® Test, SEngine Precision Medicine).
(§5) The SPM scoring system evaluated whether a PDTO was unresponsive or responsive to endoxifen and the degree of drug response for PDTOs that were responsive to endoxifen. The SPM scoring system generated metrics an SPM score, predictive of clinical outcome, overall drug response (response category), drug sensitivity (sensitivity category), and drug personalization (personalization category). SPM scores ranged from 1-15, corresponding to the following drug response categories: no response (SPM 1-8), low response (SPM 9), moderate response (SPM 10-11), good response (SPM 12-13), and exceptional response (SPM 14-15). […] Moderate to good drug responses (SPM 10-13) may indicate that a drug has clinical relevance, possibly in combination with other drugs. The sensitivity category was determined from the sensitivity metric and is a measure of overall cell death of a patient's cells in response to endoxifen at six concentrations. […]

For experiment [2], the system named is patient-derived tumor organoids (PDTOs), pancreatic ductal adenocarcinoma. Nature of the experiment: Endoxifen screen in PDTOs: pancreatic ductal adenocarcinoma. Conditions: each line one patient sample; for pIC50: four-parameter logistic fit. How it is done: as §1, §2, §3, §4, §5
In experiment [3] the test system is patient-derived tumor organoids (PDTOs), leiomyosarcoma. Nature of the experiment: Endoxifen screen in PDTOs: leiomyosarcoma. Conditions: each line one patient sample. How it is done: as §1, §2, §3, §4
The SPM scoring system evaluated whether a PDTO was unresponsive or responsive to endoxifen and the degree of drug response for PDTOs that were responsive to endoxifen. […] The sensitivity category was determined from the sensitivity metric and is a measure of overall cell death of a patient's cells in response to endoxifen at six concentrations. […]

Where [4] appears, read: normalized area under fitted dose response curve.

The structures appear in SMILES notation. pIC50: −log10 of the molar value. Several values for one entry are separate records, joined by “and”; a condition that tells them apart may be missing. Identical values can stand only once. Entries after “also recorded” stand apart in the source; their conditions may differ.

For the compound `CC/C(=C(\c1ccc(O)cc1)c1ccc(OCCNC)cc1)c1ccccc1` [Endoxifen, 4-hydroxy-N-desmethyltamoxifen], the “Personalization Category” value was “None and Low and High” in experiment [1]; “Good and Low and None” in experiment [2]; “None” in experiment [3]. For the same compound, the “Response Category” value in experiment [1] is recorded as “None (no response (SPM 1-8)); also recorded: Low (low response (SPM 9)); also recorded: Good (good response (SPM 12-13)); also recorded: Moderate (moderate response (SPM 10-11))”; in experiment [2], “Moderate (moderate response (SPM 10-11)); also recorded: Low (low response (SPM 9)); also recorded: None (no response (SPM 1-8))”; in experiment [3], “None (no response (SPM 1-8))”. Moreover, the “Sensitivity Category” value in experiment [1] was “Low and Moderate”; in experiment [2], “Low and None”; in experiment [3] it was “None”. Besides, the pIC50 (as a rule, −log10 of the IC50, conventionally taken in molar units) was 5.18 and 5.17 and 5.61 and 5.38 and 5.54 and 5.31 in experiment [1] (four-parameter logistic fit); 5.35 in experiment [2] (Homo sapiens); 5.23 in experiment [2]. Besides, the AUC was 0.9503 and 0.8641 and 0.7529 and 0.8116 and 0.6723 and 0.8547 in experiment [1] (setting [4]); 0.8283 and 0.8839 and 1.1358 in experiment [2] (setting [4]); 0.9719 and 1.0448 and 1.0001 in experiment [3] (setting [4]). The “SPM Score” value in experiment [1] (score range 1-15) is 5 and 9 and 12 and 11 and 13 and 10; in experiment [2] (score range 1-15), 11 and 9 and 1; in experiment [3] (score range 1-15) it was 1.
